Tests used:
[1] = Binding verification by isothermal titration calorimeter with L-arginine; conditions: ITC; 10 μM peptide aptamer titrated into 1 μM L-arginine, 10 mM PBS, pH 7.4, 37° C.; read-out: binding parameter Kd value
Procedure: In the present invention, a primary sequence of an L-arginine sensing protein which can be recognized with L-arginine is obtained by searching for the L-arginine sensing proteins and transporters from a protein library, followed by cutting the primary sequence of the L-arginine sensing protein into 8 amino acid residues to obtain a peptide library and removing repeated peptide sequences from the peptide library. Next, a molecular simulation is performed on the peptides in the deduplicated peptide library and L-arginine to obtain a peptide aptamer library that can specifically bind to the arginine, and preferably, the peptide aptamer library is selected for experimental verification. Then, a binding verification is carried out on the peptide aptamer library and the arginine by an isothermal titration calorimeter. A verification method is as follows: 1 μM of the L-arginine is titrated with 10 μM of the peptide aptamer, a solvent and a binding buffer is 10 mM PBS buffer, pH is 7.4, and a binding temperature is 37° C., and the peptide aptamer that can specifically bind to the L-arginine can be determined.
Molecular simulation and binding verification of a peptide aptamer with L-arginine • A) Molecular simulation of the peptide aptamer and the L-arginine: AutoDock is used to place the L-arginine on the active site of the peptide aptamer, and its binding mode is predicted. […]

[2] = Isothermal titration calorimeter binding to other amino acids; conditions: amino acids having a similar structure to L-arginine

Kd [1]: 13.3 µM
binding ability to other amino acids (ITC) [2]: no or very weak binding ability
Sequence: FGHIHEGY [peptide aptamer]

Reference: patent publication US11774455B2, “Peptide aptamer for specific recognition of arginine and its application” (INSTITUTE OF SUBTROPICAL AGRICULTURE, CHINESE ACADEMY OF …, priority 2019, dated 2023)
